From PubChem BioAssay AID248 (DTP/NCI, 2004)
Where “and” joins values, the source holds several entries; their conditions need not be identical. Equal values may be shown once. Inconclusive results and toxic doses are left out.

Tested on: L1210 leukemia ip in BDF1 mice, survival T/C
Assay: NCI In Vivo Anticancer Drug Screen. Data for tumor model L1210 Leukemia (intraperitoneal) in B6D2F1 (BDF1) mice
Settings: endpoint: mean survival time, higher = longer survival
Summary of the method: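 Transplanted-tumor mice were given test agent; controls received vehicle only. Survival readings from the two groups were divided (treated over control).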

[1] = dose: 100.0 mg/kg/injection, schedule: Q04DX002 (ip), vehicle: Klucel (hydroxypropylcellulose) (HPC)
[2] = dose: 200.0 mg/kg/injection, schedule: Q04DX002 (ip), vehicle: Klucel (hydroxypropylcellulose) (HPC)
[3] = dose: 400.0 mg/kg/injection, schedule: Q04DX002 (ip), vehicle: Klucel (hydroxypropylcellulose) (HPC)
[4] = dose: 12.5 mg/kg/injection, schedule: Q01DX009 (ip), vehicle: Klucel (hydroxypropylcellulose) (HPC)
[5] = dose: 25.0 mg/kg/injection, schedule: Q01DX009 (ip), vehicle: Klucel (hydroxypropylcellulose) (HPC)
[6] = dose: 100.0 mg/kg/injection, schedule: Q04DX003 (ip), vehicle: Klucel (hydroxypropylcellulose) (HPC)
[7] = dose: 200.0 mg/kg/injection, schedule: Q04DX003 (ip), vehicle: Klucel (hydroxypropylcellulose) (HPC)
[8] = dose: 50.0 mg/kg/injection, schedule: Q01DX001 (ip), vehicle: saline
[9] = dose: 100.0 mg/kg/injection, schedule: Q01DX001 (ip), vehicle: saline
[10] = dose: 200.0 mg/kg/injection, schedule: Q01DX001 (ip), vehicle: saline
[11] = dose: 400.0 mg/kg/injection, schedule: Q01DX001 (ip), vehicle: saline
[12] = dose: 100.0 mg/kg/injection, schedule: Q01DX001 (ip), vehicle: carboxymethylcellulose (CMC)
[13] = dose: 200.0 mg/kg/injection, schedule: Q01DX001 (ip), vehicle: carboxymethylcellulose (CMC)
[14] = dose: 400.0 mg/kg/injection, schedule: Q01DX001 (ip), vehicle: carboxymethylcellulose (CMC)
[15] = dose: 100.0 mg/kg/injection, schedule: Q04DX002 (ip), vehicle: saline with Tween-80

NC(Cc1ccc(OC2CCCC2)c(N(CCCl)CCCl)c1)C(=O)O (stereo not given)
T/C (dose: 0.6 mg/kg/injection, schedule: Q01DX009 (ip), vehicle: carboxymethylcellulose (CMC)): 122 % of control
T/C (dose: 3.8 mg/kg/injection, schedule: Q01DX009 (ip), vehicle: saline): 102 % of control
T/C (dose: 4.4 mg/kg/injection, schedule: Q01DX001 (ip), vehicle: carboxymethylcellulose (CMC)): 107 % of control
T/C (dose: 5.7 mg/kg/injection, schedule: Q01DX009 (ip), vehicle: saline): 103 % of control
T/C (dose: 6.6 mg/kg/injection, schedule: Q01DX001 (ip), vehicle: carboxymethylcellulose (CMC)): 111 % of control
T/C (dose: 8.5 mg/kg/injection, schedule: Q01DX001 (ip), vehicle: carboxymethylcellulose (CMC)): 111 % of control
T/C (dose: 8.5 mg/kg/injection, schedule: Q01DX009 (ip), vehicle: carboxymethylcellulose (CMC)): 155 % of control
T/C (dose: 8.5 mg/kg/injection, schedule: Q01DX009 (ip), vehicle: saline): 110 % of control
T/C (dose: 8.8 mg/kg/injection, schedule: Q01DX009 (ip), vehicle: carboxymethylcellulose (CMC)): 115 % of control
T/C (dose: 10.0 mg/kg/injection, schedule: Q01DX001 (ip), vehicle: carboxymethylcellulose (CMC)): 120 % of control
T/C (dose: 13.0 mg/kg/injection, schedule: Q01DX001 (ip), vehicle: carboxymethylcellulose (CMC)): 114 % of control
T/C (dose: 13.0 mg/kg/injection, schedule: Q01DX009 (ip), vehicle: carboxymethylcellulose (CMC)): 152 % of control
T/C (dose: 13.3 mg/kg/injection, schedule: Q01DX009 (ip), vehicle: carboxymethylcellulose (CMC)): 88 % of control
T/C (dose: 20.0 mg/kg/injection, schedule: Q01DX009 (ip), vehicle: carboxymethylcellulose (CMC)): 215 % of control
T/C (dose: 20.0 mg/kg/injection, schedule: Q01DX009 (ip), vehicle: saline): 119 % of control
T/C (dose: 30.0 mg/kg/injection, schedule: Q01DX001 (ip), vehicle: carboxymethylcellulose (CMC)): 202 % of control
T/C (dose: 30.0 mg/kg/injection, schedule: Q01DX009 (ip), vehicle: saline): 98 % of control

OCC(O)C(O)C(O)C(O)c1nc2ccccc2[nH]1 (stereo not given)
T/C [1]: 105 % of control
T/C [2]: 87 % of control
T/C [3]: 97 % of control

O=C(CCN1CC1)OC1CCCCCC1
T/C (dose: 6.25 mg/kg/injection, schedule: Q01DX009 (ip), vehicle: Klucel (hydroxypropylcellulose) (HPC)): 100 % of control
T/C [4]: 100 % of control
T/C [5]: 95 % of control
T/C [6]: 104 % of control
T/C [7]: 101 % of control

C=CCNC(=O)c1ccccc1O
T/C (dose: 100.0 mg/kg/injection, schedule: Q01DX009 (sc), vehicle: olive oil, sesame oil, peanut oil): 101 % of control
T/C (dose: 100.0 mg/kg/injection, schedule: Q04DX003 (sc), vehicle: olive oil, sesame oil, peanut oil): 91 % of control
T/C (dose: 200.0 mg/kg/injection, schedule: Q01DX009 (sc), vehicle: olive oil, sesame oil, peanut oil): 101 % of control
T/C (dose: 200.0 mg/kg/injection, schedule: Q04DX003 (sc), vehicle: olive oil, sesame oil, peanut oil): 100 % of control
T/C (dose: 400.0 mg/kg/injection, schedule: Q01DX009 (sc), vehicle: olive oil, sesame oil, peanut oil): 94 % of control
T/C (dose: 400.0 mg/kg/injection, schedule: Q04DX003 (sc), vehicle: olive oil, sesame oil, peanut oil): 91 % of control

CCCCN(CCC#N)C(N)=O
T/C (dose: 100.0 mg/kg/injection, schedule: Q01DX Z (ip), vehicle: methylcellulose (MC)): 100 % of control

CCCCCCCCOC(=O)c1ccc2c(c1)Nc1cc3ccccc3cc1N2
T/C [1]: 105 % of control
T/C [2]: 101 % of control
T/C [3]: 92 % of control

O=S(=O)(O)c1cc(Cl)cc(N=Nc2ccc(O)cc2O)c1O
T/C [8]: 98 % of control
T/C [9]: 98 % of control
T/C [10]: 104 % of control
T/C [11]: 98 % of control

CN(C)c1ccc(C(=C2C=CC(=[N+](C)C)C=C2)c2ccccc2Cl)cc1
T/C [8]: 92 % of control
T/C [9]: 92 % of control

C=CCNC(=S)Nc1ccccc1C=O
T/C (dose: 25.0 mg/kg/injection, schedule: Q04DX002 (ip), vehicle: Klucel (hydroxypropylcellulose) (HPC)): 100 % of control
T/C (dose: 50.0 mg/kg/injection, schedule: Q04DX002 (ip), vehicle: Klucel (hydroxypropylcellulose) (HPC)): 106 % of control
T/C [1]: 110 % of control and 90 % of control

COc1ccc(C(C)=O)cc1CCCOC(C)=O
T/C [12]: 95 % of control
T/C [13]: 106 % of control
T/C [14]: 101 % of control

CC12OC3(C)C4C(=O)OC1C1(C)OC4(C)C3C(=O)OC21
T/C (dose: 100.0 mg/kg/injection, schedule: Q01DX009 (ip), vehicle: saline with Tween-80): 102 % of control
T/C (dose: 200.0 mg/kg/injection, schedule: Q01DX009 (ip), vehicle: saline with Tween-80): 101 % of control
T/C (dose: 400.0 mg/kg/injection, schedule: Q01DX009 (ip), vehicle: saline with Tween-80): 98 % of control

CC1(C)OC2COC(c3cc(C(N)=O)n[nH]3)C2O1 (stereo not given)
T/C (dose: 100.0 mg/kg/injection, schedule: Q04DX003 (ip), vehicle: saline with Tween-80): 97 % of control
T/C (dose: 200.0 mg/kg/injection, schedule: Q04DX003 (ip), vehicle: saline with Tween-80): 100 % of control
T/C (dose: 400.0 mg/kg/injection, schedule: Q04DX003 (ip), vehicle: saline with Tween-80): 100 % of control

CCCCC1(CC)C(=O)NC(=S)NC1=O
T/C [9]: 114 % of control
T/C [10]: 104 % of control

CCCCCC(=O)OC1CCCCC1C1CCCCC1 (stereo not given)
T/C (dose: 50.0 mg/kg/injection, schedule: Q01DX001 (ip), vehicle: carboxymethylcellulose (CMC)): 96 % of control
T/C [12]: 94 % of control
T/C [13]: 100 % of control
T/C [14]: 96 % of control

O=C(c1ccc(Cl)cc1)C(NCCO)c1ccc(Cl)cc1 (stereo not given)
T/C [8]: 97 % of control
T/C [9]: 101 % of control
T/C [10]: 95 % of control
T/C [11]: 95 % of control

CCCCCCC(C)OB(OC(C)CCCCCC)OC(C)CCCCCC (stereo not given)
T/C [6]: 103 % of control
T/C [7]: 95 % of control
T/C (dose: 400.0 mg/kg/injection, schedule: Q04DX003 (ip), vehicle: Klucel (hydroxypropylcellulose) (HPC)): 93 % of control

Cc1cnc(-n2nc(-c3ccccc3)cc2-c2ccccc2)nc1-c1ccccc1O
T/C [4]: 87 % of control
T/C [5]: 91 % of control
T/C (dose: 50.0 mg/kg/injection, schedule: Q01DX009 (ip), vehicle: Klucel (hydroxypropylcellulose) (HPC)): 97 % of control and 92 % of control

CCCC(CCC)NC(=O)c1ccccc1
T/C (dose: 25.0 mg/kg/injection, schedule: Q04DX002 (ip), vehicle: saline with Tween-80): 104 % of control
T/C (dose: 50.0 mg/kg/injection, schedule: Q04DX002 (ip), vehicle: saline with Tween-80): 95 % of control
T/C [15]: 95 % of control

Cc1ccc(C)c(Cl)c1Cl
T/C (dose: 75.0 mg/kg/injection, schedule: Q01DX009 (ip), vehicle: saline sonified): 98 % of control
T/C (dose: 100.0 mg/kg/injection, schedule: Q04DX003 (ip), vehicle: saline): 103 % of control
T/C (dose: 150.0 mg/kg/injection, schedule: Q01DX009 (ip), vehicle: saline sonified): 103 % of control
T/C (dose: 200.0 mg/kg/injection, schedule: Q04DX003 (ip), vehicle: saline): 108 % of control
T/C (dose: 300.0 mg/kg/injection, schedule: Q01DX009 (ip), vehicle: saline sonified): 99 % of control
T/C (dose: 400.0 mg/kg/injection, schedule: Q04DX003 (ip), vehicle: saline): 103 % of control

CCOC(=O)c1ccc(NC(=O)CCCCCCCCC(=O)Nc2ccc(C(=O)OCC)cc2)cc1
T/C [1]: 91 % of control
T/C [2]: 102 % of control
T/C [3]: 95 % of control

O=C1CCC(Cc2cccc3ccccc23)N1 (stereo not given)
T/C [15]: 97 % of control
T/C (dose: 200.0 mg/kg/injection, schedule: Q04DX002 (ip), vehicle: saline with Tween-80): 91 % of control
T/C (dose: 400.0 mg/kg/injection, schedule: Q04DX002 (ip), vehicle: saline with Tween-80): 94 % of control

C1=C\CCCCCCCC/1
T/C (dose: 6.25 mg/kg/injection, schedule: Q01DX009 (ip), vehicle: saline with Tween-80): 93 % of control
T/C (dose: 12.5 mg/kg/injection, schedule: Q01DX009 (ip), vehicle: saline with Tween-80): 104 % of control
T/C (dose: 25.0 mg/kg/injection, schedule: Q01DX009 (ip), vehicle: saline with Tween-80): 98 % of control
T/C [9]: 101 % of control
T/C [10]: 101 % of control
T/C [11]: 95 % of control
